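The compound was tested at five concentrations on cells cultured in 96-well plates, with a 48-hour exposure period. GI50 is the concentration that inhibits growth by half.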 The source made the active and inactive calls. Cut-off read from the data, not from the text of the source: active = GI50 up to about 1.1 µM and inactive = higher.
Columns and labels:
Assay in all cases: inhibition of tumour cell growth, NCI panel, 48 h
SF-539 = test system: SF-539
SNB-19 = test system: SNB-19
OVCAR-3 = test system: OVCAR-3
M14 = test system: M14
OVCAR-5 = test system: OVCAR-5
A549 = test system: A549
COLO 205 = test system: COLO 205
DU-145 = test system: DU-145
BT-549 = test system: BT-549
RPMI-8226 = test system: RPMI-8226
MOLT-4 = test system: MOLT-4
MDA-MB-231 = test system: MDA-MB-231
SW-620 = test system: SW-620
MDA-MB-435 = test system: MDA-MB-435
HL-60 = test system: HL-60
A498 = test system: A498
MDA-N = test system: MDA-N
MCF7 = test system: MCF7
UACC-62 = test system: UACC-62
NCI-H23 = test system: NCI-H23
SK-OV-3 = test system: SK-OV-3
HCC 2998 = test system: HCC 2998
EKVX = test system: EKVX
NCI-H460 = test system: NCI-H460
SK-MEL-2 = test system: SK-MEL-2
SF-295 = test system: SF-295
SN12C = test system: SN12C
NCI-H522 = test system: NCI-H522
NCI-H226 = test system: NCI-H226
UACC-257 = test system: UACC-257
UO-31 = test system: UO-31
Hs-578T = test system: Hs-578T
Malme-3M = test system: Malme-3M
KM12 = test system: KM12
786-0 = test system: 786-0
SK-MEL-5 = test system: SK-MEL-5
HT-29 = test system: HT-29
LOX IMVI = test system: LOX IMVI
SK-MEL-28 = test system: SK-MEL-28
SF-268 = test system: SF-268
OVCAR-8 = test system: OVCAR-8
HOP-92 = test system: HOP-92
T47D = test system: T47D
SNB-75 = test system: SNB-75
U-251 = test system: U-251
CAKI-1 = test system: CAKI-1
TK-10 = test system: TK-10
HCT-116 = test system: HCT-116
OVCAR-4 = test system: OVCAR-4
CCRF-CEM = test system: CCRF-CEM
ACHN = test system: ACHN
HOP-62 = test system: HOP-62
NCI/ADR-RES = test system: NCI/ADR-RES
IGROV-1 = test system: IGROV-1
SR = test system: SR
RXF 393 = test system: RXF 393
HCT-15 = test system: HCT-15
K562 = test system: K562
PC-3 = test system: PC-3

O=C1C=CC(=O)N1c1ccc(I)cc1
GI50 (SF-539): 22.5 µM (inactive) | GI50 (SNB-19): > 44.8 µM (inactive) | GI50 (OVCAR-3): 20.8 µM (inactive) | GI50 (M14): 16.7 µM (inactive) | GI50 (OVCAR-5): 23.6 µM (inactive) | GI50 (A549): 22.9 µM (inactive) | GI50 (COLO 205): 6.18 µM (inactive) | GI50 (DU-145): 19.2 µM (inactive) | GI50 (BT-549): 19 µM (inactive) | GI50 (RPMI-8226): 6.11 µM (inactive) | GI50 (MOLT-4): 2.56 µM (inactive) | GI50 (MDA-MB-231): 23.6 µM (inactive) | GI50 (SW-620): 7.08 µM (inactive) | GI50 (MDA-MB-435): 16.4 µM (inactive) | GI50 (HL-60): 2.84 µM (inactive) | GI50 (A498): 20.2 µM (inactive) | GI50 (MDA-N): 15.2 µM (inactive) | GI50 (MCF7): 17.4 µM (inactive) | GI50 (UACC-62): 17.5 µM (inactive) | GI50 (NCI-H23): 23.8 µM (inactive) | GI50 (SK-OV-3): 16.5 µM (inactive) | GI50 (HCC 2998): 19.1 µM (inactive) | GI50 (EKVX): 23.3 µM (inactive) | GI50 (NCI-H460): 33.5 µM (inactive) | GI50 (SK-MEL-2): 20.4 µM (inactive) | GI50 (SF-295): 20.5 µM (inactive) | GI50 (SN12C): 20.6 µM (inactive) | GI50 (NCI-H522): 18.6 µM (inactive) | GI50 (NCI-H226): 22.9 µM (inactive) | GI50 (UACC-257): 18 µM (inactive) | GI50 (UO-31): 18.9 µM (inactive) | GI50 (Hs-578T): 23.4 µM (inactive) | GI50 (Malme-3M): 17.9 µM (inactive) | GI50 (KM12): 21.4 µM (inactive) | GI50 (786-0): 7.53 µM (inactive) | GI50 (SK-MEL-5): 18.6 µM (inactive) | GI50 (HT-29): 18.9 µM (inactive) | GI50 (LOX IMVI): 19.9 µM (inactive) | GI50 (SK-MEL-28): 18.5 µM (inactive) | GI50 (SF-268): 27 µM (inactive) | GI50 (OVCAR-8): 31.6 µM (inactive) | GI50 (HOP-92): 21.3 µM (inactive) | GI50 (T47D): 25.6 µM (inactive) | GI50 (SNB-75): 21.8 µM (inactive) | GI50 (U-251): 23.6 µM (inactive) | GI50 (CAKI-1): 17.5 µM (inactive) | GI50 (TK-10): 16.4 µM (inactive) | GI50 (HCT-116): 15.6 µM (inactive) | GI50 (OVCAR-4): 20.2 µM (inactive) | GI50 (CCRF-CEM): 3.1 µM (inactive) | GI50 (ACHN): 17.3 µM (inactive) | GI50 (HOP-62): 15.7 µM (inactive) | GI50 (NCI/ADR-RES): 29.9 µM (inactive) | GI50 (IGROV-1): 24.9 µM (inactive) | GI50 (SR): 5.77 µM (inactive) | GI50 (RXF 393): 17.9 µM (inactive) | GI50 (HCT-15): 11.5 µM | GI50 (K562): 6.01 µM (inactive) | GI50 (PC-3): 18.3 µM (inactive)

O=c1c(F)cn(Cc2c(Cl)cccc2Cl)c(=O)n1Cc1c(Cl)cccc1Cl
GI50 (SF-539): > 31.6 µM (inactive) | GI50 (SNB-19): > 100 µM (inactive) | GI50 (OVCAR-3): > 31.6 µM (inactive) | GI50 (M14): > 31.6 µM (inactive) | GI50 (OVCAR-5): > 31.6 µM (inactive) | GI50 (A549): > 31.6 µM (inactive) | GI50 (COLO 205): 19.9 µM (inactive) | GI50 (DU-145): > 100 µM (inactive) | GI50 (BT-549): > 31.6 µM (inactive) | GI50 (RPMI-8226): > 31.6 µM (inactive) | GI50 (MOLT-4): 25.6 µM (inactive) | GI50 (MDA-MB-231): > 31.6 µM (inactive) | GI50 (SW-620): > 31.6 µM (inactive) | GI50 (MDA-MB-435): 29.6 µM (inactive) | GI50 (HL-60): 20 µM (inactive) | GI50 (A498): > 31.6 µM (inactive) | GI50 (MDA-N): > 31.6 µM (inactive) | GI50 (MCF7): 24.5 µM (inactive) | GI50 (UACC-62): 26 µM (inactive) | GI50 (NCI-H23): 27.7 µM (inactive) | GI50 (SK-OV-3): > 31.6 µM (inactive) | GI50 (HCC 2998): > 31.6 µM (inactive) | GI50 (EKVX): 21.4 µM (inactive) | GI50 (NCI-H460): > 31.6 µM (inactive) | GI50 (SK-MEL-2): > 31.6 µM (inactive) | GI50 (SF-295): > 31.6 µM (inactive) | GI50 (SN12C): > 31.6 µM (inactive) | GI50 (NCI-H522): 16 µM (inactive) | GI50 (NCI-H226): > 71.6 µM (inactive) | GI50 (UACC-257): > 31.6 µM (inactive) | GI50 (UO-31): 18.1 µM (inactive) | GI50 (Hs-578T): > 31.6 µM (inactive) | GI50 (Malme-3M): > 31.6 µM (inactive) | GI50 (KM12): > 31.6 µM (inactive) | GI50 (786-0): > 31.6 µM (inactive) | GI50 (SK-MEL-5): 18.1 µM (inactive) | GI50 (HT-29): 18.3 µM (inactive) | GI50 (LOX IMVI): > 31.6 µM (inactive) | GI50 (SK-MEL-28): > 31.6 µM (inactive) | GI50 (SF-268): > 31.6 µM (inactive) | GI50 (OVCAR-8): > 31.6 µM (inactive) | GI50 (HOP-92): 20.3 µM (inactive) | GI50 (T47D): 20.7 µM (inactive) | GI50 (SNB-75): 16.5 µM (inactive) | GI50 (U-251): > 31.6 µM (inactive) | GI50 (CAKI-1): > 21.5 µM (inactive) | GI50 (TK-10): > 31.6 µM (inactive) | GI50 (HCT-116): 23.8 µM (inactive) | GI50 (OVCAR-4): 17.1 µM (inactive) | GI50 (CCRF-CEM): 27 µM (inactive) | GI50 (ACHN): > 31.6 µM (inactive) | GI50 (HOP-62): > 31.6 µM (inactive) | GI50 (NCI/ADR-RES): > 31.6 µM (inactive) | GI50 (IGROV-1): > 31.6 µM (inactive) | GI50 (SR): 19.4 µM (inactive) | GI50 (RXF 393): 19.7 µM (inactive) | GI50 (HCT-15): > 31.6 µM | GI50 (K562): 26.9 µM (inactive) | GI50 (PC-3): 17.3 µM (inactive)

COc1ccc(/C=C/C(=O)Oc2ccccc2OC)cc1
GI50 (SF-539): 53.2 µM (inactive) | GI50 (SNB-19): 50.2 µM (inactive) | GI50 (OVCAR-3): 53.8 µM (inactive) | GI50 (M14): 30.6 µM (inactive) | GI50 (OVCAR-5): 23.6 µM (inactive) | GI50 (A549): 37.8 µM (inactive) | GI50 (COLO 205): 7.26 µM (inactive) | GI50 (DU-145): > 61.8 µM (inactive) | GI50 (BT-549): 67 µM (inactive) | GI50 (RPMI-8226): 1.95 µM (inactive) | GI50 (MOLT-4): 1.57 µM (inactive) | GI50 (MDA-MB-231): 6.52 µM (inactive) | GI50 (SW-620): 21.5 µM (inactive) | GI50 (MDA-MB-435): 40.6 µM (inactive) | GI50 (HL-60): 6.98 µM (inactive) | GI50 (A498): > 100 µM (inactive) | GI50 (MDA-N): 36.4 µM (inactive) | GI50 (MCF7): 44.4 µM (inactive) | GI50 (UACC-62): 54.5 µM (inactive) | GI50 (NCI-H23): 33 µM (inactive) | GI50 (SK-OV-3): > 100 µM (inactive) | GI50 (HCC 2998): 16.6 µM (inactive) | GI50 (EKVX): 37.8 µM (inactive) | GI50 (NCI-H460): > 100 µM (inactive) | GI50 (SK-MEL-2): 39 µM (inactive) | GI50 (SF-295): 3.21 µM (inactive) | GI50 (SN12C): 13.9 µM (inactive) | GI50 (NCI-H522): 20.3 µM (inactive) | GI50 (NCI-H226): > 96.6 µM (inactive) | GI50 (UACC-257): > 60.7 µM (inactive) | GI50 (UO-31): 37.7 µM (inactive) | GI50 (Hs-578T): 41.7 µM (inactive) | GI50 (Malme-3M): 56.9 µM (inactive) | GI50 (KM12): 9.04 µM (inactive) | GI50 (786-0): 14 µM (inactive) | GI50 (SK-MEL-5): 30.7 µM (inactive) | GI50 (HT-29): 16.4 µM (inactive) | GI50 (LOX IMVI): 29.9 µM (inactive) | GI50 (SK-MEL-28): 73.5 µM (inactive) | GI50 (SF-268): 1.81 µM (inactive) | GI50 (OVCAR-8): 26.5 µM (inactive) | GI50 (HOP-92): > 48.2 µM (inactive) | GI50 (T47D): 31.5 µM (inactive) | GI50 (SNB-75): 27.2 µM (inactive) | GI50 (U-251): 37.4 µM (inactive) | GI50 (CAKI-1): > 46.1 µM (inactive) | GI50 (TK-10): > 81.8 µM (inactive) | GI50 (HCT-116): 2.91 µM (inactive) | GI50 (OVCAR-4): 9.59 µM (inactive) | GI50 (CCRF-CEM): 0.336 µM (active) | GI50 (ACHN): > 27.6 µM (inactive) | GI50 (HOP-62): 8 µM (inactive) | GI50 (NCI/ADR-RES): 27.8 µM (inactive) | GI50 (IGROV-1): 5.2 µM (inactive) | GI50 (SR): 6.73 µM (inactive) | GI50 (RXF 393): > 51.5 µM (inactive) | GI50 (HCT-15): 3.27 µM | GI50 (K562): 23.8 µM (inactive) | GI50 (PC-3): 44.4 µM (inactive)
